Earlier results as cited in patent publication US20170360735A1, “INGESTIBLE EMULSION MATRIX FOR DELIVERY OF CREATINE” (DreamPak, priority 2016, published 2017).
Where two headings read alike, the source gives them in different places.

Legend:
[1] = ingestion of 20-30 g creatine per day for several days
[2] = oral, estimated

N-(aminoiminomethyl)-N-methylglycine [creatine]
increase in human skeletal muscle creatine content [1]: greater than 20% | creatine dissolved in water (at 70° F.): about 1.4% | creatine dissolved in water (at 120° F.): about 4.5% | absorption rate from the gastrointestinal (GI) tract [2]: 1-14%
